Data as given in ChEMBL document CHEMBL3872258, “Challenges in the development of an M4 PAM in vivo tool compound: The discovery of VU0467154 and unexpected DMPK profiles of close analogs” (Bioorg Med Chem Lett, 2017).

How the values were obtained:
[1] = target: T1, Muscarinic acetylcholine receptor M5 (Rattus norvegicus, UniProt P08911); experiment: Binding affinity to rat M5 receptor by radio-ligand binding assay
T1 sequence (P08911 whole entry): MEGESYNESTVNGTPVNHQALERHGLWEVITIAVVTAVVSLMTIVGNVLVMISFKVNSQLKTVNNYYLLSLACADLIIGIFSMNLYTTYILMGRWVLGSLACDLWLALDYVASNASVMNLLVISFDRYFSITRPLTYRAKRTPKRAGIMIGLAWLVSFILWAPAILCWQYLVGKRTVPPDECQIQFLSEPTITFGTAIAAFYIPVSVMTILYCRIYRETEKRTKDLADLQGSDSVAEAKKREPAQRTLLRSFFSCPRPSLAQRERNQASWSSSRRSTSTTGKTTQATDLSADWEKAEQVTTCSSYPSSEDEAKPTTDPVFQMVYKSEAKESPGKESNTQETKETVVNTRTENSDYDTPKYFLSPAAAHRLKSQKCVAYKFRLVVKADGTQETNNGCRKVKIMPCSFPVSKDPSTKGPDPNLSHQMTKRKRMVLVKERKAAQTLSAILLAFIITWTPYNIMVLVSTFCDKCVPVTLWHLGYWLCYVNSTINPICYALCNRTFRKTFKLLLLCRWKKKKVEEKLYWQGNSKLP

[2] = Volume of distribution at steady state in Sprague-Dawley rat at 1 mg/kg, iv; format: ADME, organism-based; conditions: in vivo; for Vd: Sprague-Dawley, read-out: Vdss
[3] = Unbound fraction in rat brain; format: ADME, tissue-based; conditions: for fraction unbound: brain
Cytochrome P450 2C9 = Cytochrome P450 2C9 (Homo sapiens, UniProt P11712); experiment: Inhibition of CYP2C9 (unknown origin); format: ADME
Cytochrome P450 3A4 = Cytochrome P450 3A4 (Homo sapiens, UniProt P08684); experiment: Inhibition of CYP3A4 (unknown origin); format: ADME
Rattus norvegicus = experiment: Reversal of amphetamine-induced hyperlocomotion in Sprague-Dawley rat at 10 mg/kg, po administered 30 mins after habituation in the chamber followed by amphetamine injection measured for 60 mins; format: functional
[4] = Intrinsic clearance in rat; format: ADME
[5] = target: T2, Muscarinic acetylcholine receptor M2 (Rattus norvegicus, UniProt P10980); experiment: Binding affinity to rat M2 receptor by radio-ligand binding assay
T2 sequence (P10980 whole entry): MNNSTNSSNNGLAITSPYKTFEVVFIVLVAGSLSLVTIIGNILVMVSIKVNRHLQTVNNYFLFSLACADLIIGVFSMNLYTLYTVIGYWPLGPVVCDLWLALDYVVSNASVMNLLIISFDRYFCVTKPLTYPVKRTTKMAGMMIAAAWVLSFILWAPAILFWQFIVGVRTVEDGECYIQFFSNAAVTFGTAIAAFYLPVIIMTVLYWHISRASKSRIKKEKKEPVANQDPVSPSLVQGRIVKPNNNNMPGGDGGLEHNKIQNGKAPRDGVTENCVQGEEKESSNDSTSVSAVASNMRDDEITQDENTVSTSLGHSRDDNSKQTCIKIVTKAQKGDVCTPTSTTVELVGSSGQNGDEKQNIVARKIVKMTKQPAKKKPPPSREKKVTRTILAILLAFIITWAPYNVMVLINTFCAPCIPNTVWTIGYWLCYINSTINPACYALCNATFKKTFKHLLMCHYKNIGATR

[6] = Ratio of unbound concentration in brain to plasma in Sprague-Dawley rat at 1 mg/kg, ip at 0.25 hrs; format: ADME, organism-based
[7] = target: T3, Muscarinic acetylcholine receptor M1 (Rattus norvegicus, UniProt P08482); experiment: Binding affinity to rat M1 receptor by radio-ligand binding assay
T3 sequence (P08482 whole entry): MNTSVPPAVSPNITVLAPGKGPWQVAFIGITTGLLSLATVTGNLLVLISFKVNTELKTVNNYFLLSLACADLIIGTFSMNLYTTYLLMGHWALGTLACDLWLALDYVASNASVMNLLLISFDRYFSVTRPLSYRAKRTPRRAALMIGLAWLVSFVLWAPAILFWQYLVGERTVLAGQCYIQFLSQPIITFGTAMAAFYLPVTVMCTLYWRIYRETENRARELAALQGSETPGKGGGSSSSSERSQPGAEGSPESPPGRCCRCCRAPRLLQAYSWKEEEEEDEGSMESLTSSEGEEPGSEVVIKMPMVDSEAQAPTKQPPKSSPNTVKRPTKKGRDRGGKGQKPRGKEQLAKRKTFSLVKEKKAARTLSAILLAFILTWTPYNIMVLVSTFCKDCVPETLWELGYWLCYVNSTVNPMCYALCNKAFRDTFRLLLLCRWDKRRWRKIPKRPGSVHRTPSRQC

Cytochrome P450 1A2 = target: T4, Cytochrome P450 1A2 (Homo sapiens, UniProt P05177); experiment: Inhibition of CYP1A2 (unknown origin); format: ADME
T4 sequence (P05177 whole entry): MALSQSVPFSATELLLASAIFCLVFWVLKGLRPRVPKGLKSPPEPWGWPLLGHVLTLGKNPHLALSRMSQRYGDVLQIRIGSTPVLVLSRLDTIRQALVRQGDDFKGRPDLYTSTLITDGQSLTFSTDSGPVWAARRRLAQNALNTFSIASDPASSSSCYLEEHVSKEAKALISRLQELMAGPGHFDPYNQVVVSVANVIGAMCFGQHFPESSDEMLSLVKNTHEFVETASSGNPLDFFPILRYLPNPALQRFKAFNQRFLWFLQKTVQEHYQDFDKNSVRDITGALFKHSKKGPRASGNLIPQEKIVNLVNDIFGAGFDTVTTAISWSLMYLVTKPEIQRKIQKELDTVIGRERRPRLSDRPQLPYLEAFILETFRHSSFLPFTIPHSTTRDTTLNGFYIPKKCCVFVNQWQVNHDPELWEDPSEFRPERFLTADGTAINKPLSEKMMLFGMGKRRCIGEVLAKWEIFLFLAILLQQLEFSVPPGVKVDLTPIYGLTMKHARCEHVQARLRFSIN

Cytochrome P450 2D6 = Cytochrome P450 2D6 (Homo sapiens, UniProt P10635); experiment: Inhibition of CYP2D6 (unknown origin); format: ADME
[8] = Intrinsic clearance in human; format: ADME

Chain of Cytochrome P450 2C9 (P11712 whole entry): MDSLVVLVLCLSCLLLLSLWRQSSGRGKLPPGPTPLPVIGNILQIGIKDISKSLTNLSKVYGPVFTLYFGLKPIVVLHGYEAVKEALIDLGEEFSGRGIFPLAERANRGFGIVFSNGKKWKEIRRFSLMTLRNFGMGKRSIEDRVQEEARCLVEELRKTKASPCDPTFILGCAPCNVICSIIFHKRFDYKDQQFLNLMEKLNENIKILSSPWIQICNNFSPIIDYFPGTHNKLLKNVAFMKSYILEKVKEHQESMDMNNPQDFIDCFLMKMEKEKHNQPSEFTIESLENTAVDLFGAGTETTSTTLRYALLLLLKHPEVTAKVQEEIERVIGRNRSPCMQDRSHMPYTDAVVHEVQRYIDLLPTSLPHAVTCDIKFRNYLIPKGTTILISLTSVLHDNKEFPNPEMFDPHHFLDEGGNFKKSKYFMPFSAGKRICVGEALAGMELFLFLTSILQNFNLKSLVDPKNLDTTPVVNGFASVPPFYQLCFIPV
Chain of Cytochrome P450 3A4 (P08684 whole entry): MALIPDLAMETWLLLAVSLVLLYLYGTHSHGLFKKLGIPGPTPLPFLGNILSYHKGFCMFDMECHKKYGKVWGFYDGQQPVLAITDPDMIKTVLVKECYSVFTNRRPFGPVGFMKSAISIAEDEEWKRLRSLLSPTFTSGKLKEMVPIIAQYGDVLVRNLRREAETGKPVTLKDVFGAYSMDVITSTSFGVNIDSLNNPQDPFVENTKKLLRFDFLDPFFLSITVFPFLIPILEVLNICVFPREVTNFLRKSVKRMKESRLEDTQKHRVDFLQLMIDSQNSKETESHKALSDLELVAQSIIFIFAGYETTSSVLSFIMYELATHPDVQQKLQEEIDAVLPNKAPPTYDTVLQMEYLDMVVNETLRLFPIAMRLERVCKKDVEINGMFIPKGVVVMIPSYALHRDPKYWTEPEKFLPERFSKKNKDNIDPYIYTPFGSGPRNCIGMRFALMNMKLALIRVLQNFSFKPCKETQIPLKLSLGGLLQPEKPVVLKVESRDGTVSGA
Chain of Cytochrome P450 2D6 (P10635 whole entry): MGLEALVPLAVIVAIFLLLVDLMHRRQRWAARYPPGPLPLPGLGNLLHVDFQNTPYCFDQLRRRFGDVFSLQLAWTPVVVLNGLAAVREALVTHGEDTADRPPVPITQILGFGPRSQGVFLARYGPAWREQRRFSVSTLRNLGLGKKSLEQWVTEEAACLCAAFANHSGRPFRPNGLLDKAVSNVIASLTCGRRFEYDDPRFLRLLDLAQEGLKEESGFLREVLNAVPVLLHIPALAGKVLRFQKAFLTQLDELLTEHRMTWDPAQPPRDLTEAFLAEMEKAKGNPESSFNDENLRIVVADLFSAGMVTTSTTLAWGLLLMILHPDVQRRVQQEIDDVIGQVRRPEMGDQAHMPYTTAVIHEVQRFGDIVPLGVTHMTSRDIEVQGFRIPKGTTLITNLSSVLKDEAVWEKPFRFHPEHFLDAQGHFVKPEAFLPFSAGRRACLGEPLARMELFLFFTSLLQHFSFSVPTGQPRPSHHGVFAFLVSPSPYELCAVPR

Compound | EC50 [1] | Vd [2] | fraction unbound [3] | IC50 (Cytochrome P450 2C9) | IC50 (Cytochrome P450 3A4) | Activity (Rattus norvegicus) | CLint scaled [4] | EC50 [5] | K(p,uu,brain) [6] | EC50 [7] | IC50 (Cytochrome P450 1A2) | IC50 (Cytochrome P450 2D6) | CLint scaled [8] | Vdss [2] | Fu [3]
Cc1nnc2sc(C(=O)NCc3ccc(S(F)(F)(F)(F)F)cc3)c(N)c2c1C | > 30 µM | 3.1 L/kg | 0.004 | > 30 µM | > 30 µM | 66.3% | 95.9 mL/min/kg | > 30 µM | 0.75 | > 30 µM | > 30 µM | 23.9 µM | 52.8 mL/min/kg | – | –
Cc1nnc2sc(C(=O)NCc3ccc(S(=O)(=O)C(F)(F)F)cc3)c(N)c2c1C | > 30 µM | – | – | > 30 µM | > 30 µM | 55.3% | 47.7 mL/min/kg | > 30 µM | 1.1 | > 30 µM | > 30 µM | > 30 µM | 19.8 mL/min/kg | 3.1 L/kg | 0.067
Cc1nnc2sc(C(=O)NCc3ccc(S(=O)(=O)C(F)F)cc3)c(N)c2c1C | > 30 µM | 2.9 L/kg | 0.062 | > 30 µM | > 30 µM | 49.3% | 48.1 mL/min/kg | > 30 µM | 0.1 | > 30 µM | > 30 µM | 20.8 µM | 15.6 mL/min/kg | – | –
